Test system: 855422-203-R-J1-PDC complex spheroid viability
Experiment: Anticancer human tumor 855422-203-R-J1-PDC patient-derived bladder carcinoma cell line growth inhibition
Conditions: for IC50: curve of first compound; for viability, T/C: stronger effect = lower value
How it was run: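 Multicellular complex spheroids of tumor cells with human endothelial cells (HUVEC) and mesenchymal stem cells; the LSD1 inhibitor iadademstat was combined with standard-of-care or investigational agents. Top concentration at or near clinical Cmax, half-log dilutions; final DMSO ≤0.25%.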

[1] = second compound 0.1 µM, first compound 0.000316 µM
[2] = second compound 0.1 µM, first compound 0.001 µM
[3] = second compound 0.1 µM, first compound 0.00316 µM
[4] = second compound 0.1 µM, first compound 0.01 µM
[5] = second compound 0.1 µM, first compound 0.0316 µM
[6] = second compound 0.1 µM, first compound 0.1 µM
[7] = second compound 0.316 µM, first compound 0.000316 µM
[8] = second compound 0.316 µM, first compound 0.001 µM
[9] = second compound 0.316 µM, first compound 0.00316 µM
[10] = second compound 0.316 µM, first compound 0.01 µM
[11] = second compound 0.316 µM, first compound 0.0316 µM
[12] = second compound 0.316 µM, first compound 0.1 µM
[13] = second compound 1 µM, first compound 0.000316 µM
[14] = second compound 1 µM, first compound 0.001 µM
[15] = second compound 1 µM, first compound 0.00316 µM
[16] = second compound 1 µM, first compound 0.01 µM
[17] = second compound 1 µM, first compound 0.0316 µM
[18] = second compound 1 µM, first compound 0.1 µM
[19] = second compound 3.16 µM, first compound 0.000316 µM
[20] = second compound 3.16 µM, first compound 0.001 µM
[21] = second compound 3.16 µM, first compound 0.00316 µM
[22] = second compound 3.16 µM, first compound 0.01 µM
[23] = second compound 3.16 µM, first compound 0.0316 µM
[24] = second compound 3.16 µM, first compound 0.1 µM
[25] = second compound 10 µM, first compound 0.000316 µM
[26] = second compound 10 µM, first compound 0.001 µM
[27] = second compound 10 µM, first compound 0.00316 µM
[28] = second compound 10 µM, first compound 0.01 µM
[29] = second compound 10 µM, first compound 0.0316 µM
[30] = second compound 10 µM, first compound 0.1 µM
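Further: drug exposure lasted 7 days starting on day 3 after seeding.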
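Wherever viability, T/C is given: luminescence viability as percent of DMSO vehicle wells = 100%.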

| Compound | IC50 (second compound 0.1 µM) [nM] | IC50 (second compound 0.316 µM) [nM] | IC50 (second compound 1 µM) [nM] | IC50 (second compound 3.16 µM) [nM] | IC50 (second compound 10 µM) [nM] | viability, T/C [3] [%] | viability, T/C [4] [%] | viability, T/C [5] [%] | viability, T/C [6] [%] | viability, T/C [9] [%] | viability, T/C [10] [%] | viability, T/C [11] [%] | viability, T/C [12] [%] | viability, T/C [15] [%] | viability, T/C [16] [%] | viability, T/C [17] [%] | viability, T/C [18] [%] | viability, T/C [21] [%] | viability, T/C [22] [%] | viability, T/C [23] [%] | also measured |
| --- | --- | --- | --- | --- | --- | --- | --- | --- | --- | --- | --- | --- | --- | --- | --- | --- | --- | --- | --- | --- | --- |
| CC(C)CC(NC(=O)C(Cc1ccccc1)NC(=O)c1cnccn1)B(O)O (stereo not given) + NC1CC1c1ccc(-c2cccc(O)c2)cc1 | 0.641 | 0.627 | 0.61 | 0.603 | 0.578 | 0.04 | 0.01 | 0.03 | 0.14 | 0.02 | 0.01 | 0.02 | 0.11 | 0.02 | 0.01 | 0.02 | 0.12 | 0.03 | 0.02 | 0.03 | viability, T/C [1]: 127%; viability, T/C [2]: 1.42%; viability, T/C [7]: 122%; viability, T/C [8]: 1.03%; viability, T/C [13]: 115%; viability, T/C [14]: 0.89%; viability, T/C [19]: 113%; viability, T/C [20]: 0.68%; viability, T/C [24]: 0.12%; viability, T/C [25]: 105%; viability, T/C [26]: 0.52%; viability, T/C [27]: 0.15%; viability, T/C [28]: 0.14%; viability, T/C [29]: 0.13%; viability, T/C [30]: 0.19% |
| CC(C)CC(NC(=O)CNC(=O)c1cc(Cl)ccc1Cl)B1OC(=O)CC(CC(=O)O)(C(=O)O)O1 (stereo not given) + NC1CC1c1ccc(-c2cccc(O)c2)cc1 | 1.8 | 1.83 | 1.84 | 1.75 | 1.55 | 3.7 | 0.43 | 0.02 | 0.13 | 3.27 | 1.25 | 0.02 | 0.1 | 3.81 | 1.65 | 0.03 | 0.11 | 3.11 | 1 | 0.03 | viability, T/C [1]: 92.8%; viability, T/C [2]: 104%; viability, T/C [7]: 104%; viability, T/C [8]: 102%; viability, T/C [13]: 94.6%; viability, T/C [14]: 108%; viability, T/C [19]: 95%; viability, T/C [20]: 94.6%; viability, T/C [24]: 0.1%; viability, T/C [25]: 92%; viability, T/C [26]: 78.9%; viability, T/C [27]: 2.61%; viability, T/C [28]: 0.2%; viability, T/C [29]: 0.11%; viability, T/C [30]: 0.17% |
| COc1cc(Nc2ncc3c(n2)-c2ccc(Cl)cc2C(c2c(F)cccc2OC)=NC3)ccc1C(=O)O + NC1CC1c1ccc(-c2cccc(O)c2)cc1 | 670 | 284 | 89.7 | 275 | 135 | 96.4 | 103 | 84 | 68.6 | 96.9 | 96.4 | 71 | 61.2 | 82.5 | 93.4 | 69.5 | 51.8 | 88.3 | 95.5 | 69.9 | viability, T/C (second compound 0.1 µM, first compound 0.316 µM): 56.2%; viability, T/C (second compound 0.1 µM, first compound 1 µM): 46.5%; viability, T/C (second compound 0.316 µM, first compound 0.316 µM): 49.9%; viability, T/C (second compound 0.316 µM, first compound 1 µM): 44.4%; viability, T/C (second compound 1 µM, first compound 0.316 µM): 45.8%; viability, T/C (second compound 1 µM, first compound 1 µM): 46.1%; viability, T/C [24]: 61.4%; viability, T/C (second compound 3.16 µM, first compound 0.316 µM): 50%; viability, T/C (second compound 3.16 µM, first compound 1 µM): 43.4%; viability, T/C [27]: 85.7%; viability, T/C [28]: 94.1%; viability, T/C [29]: 63.1%; viability, T/C [30]: 56.8%; viability, T/C (second compound 10 µM, first compound 0.316 µM): 44.2%; viability, T/C (second compound 10 µM, first compound 1 µM): 39.5% |

From PubChem BioAssay AID1918943 (Molecular Pharmacology Branch, DTP, NCI, 2023)
